Laboratory results: PMC6324813, “Biological evaluation of isoflavonoids from Genista halacsyi using estrogen-target cells: Activities of glucosides compared to aglycones” (PLoS ONE, 2019)

How the values were obtained:
ERβ [1] = biological target: T1, ERβ (Homo sapiens, UniProt Q92731); experiment: ERE-dependent luciferase gene transcription in HEK:ERβ cells; format: cell-based; parameters: expressed in transfected cells; host or cells: HEK-293 (HEK:ERβ clone, with pERE-tk-Luciferase); settings: for activation at 1 µM / Induction of luciferase gene transcription, HEK:ERβ cells, Agonism at 1μΜ, class: 18 h; for activation at 1 µM: read-out: Induction of luciferase gene transcription through ERβ, HEK:ERβ cells, Agonism at 1μΜ (% of 0.1nM E2); for Induction of luciferase gene transcription, HEK:ERβ cells, Agonism at 1μΜ, class: compounds 1 μM
Experimental: (§1) Assessment of ER/ERE-dependent luciferase gene transcription in MCF-7:D5L (express ERα) and HEK:ERβ cells (express ERβ) and determination of ER transcriptional agonism was carried as already described. Briefly, the cells were plated in 96-well plates at a density of 12,000 cells per well in phenol-red-free MEM (MCF-7:D5L cells) or phenol-red-free DMEM (HEK:ERβ cells) supplemented with 1 μg/mL insulin and 5% DCC-FBS. […] The AUC of the isoflavonoids of each group were then expressed as % of the AUC of the respective archetypal isoflavone. Since AUC data combine the efficacy as well as the potency of cell response into a single parameter, the %AUC data were considered here as a more reliable measure of relative ER/ERE-dependent luciferase expression of the test compounds.

Ishikawa cells = experiment: Induction of AlkP expression in Ishikawa cells; format: cell-based, human; settings: for Induction of Alkaline Phosphatase Expression (Ishikawa cells) AUC (%): % of AUC of luciferase response of archetypal 3, 4, 5 or 8 up to 0.3, 10, 1.0 and 3.0 μM; for Ratio of AUC (AlkP / Lucif): AUCAlkP / AUCluciferase; for EC (25% of 0.1 nM E2 effect): concentration required to achieve 25% of the effect of 0.1 nM E2, read-out: Induction of Alkaline Phosphatase Expression (Ishikawa cells) EC25E2; for EC50: concentration required to achieve 50% of the effect of 0.1 nM E2, read-out: Induction of Alkaline Phosphatase Expression (Ishikawa cells) EC50E2; for Induction of AlkP expression (Ishikawa cells) Agonism at 1μΜ, class: compounds 1 μM
Experimental: Induction of AlkP expression of Ishikawa cells is considered as a reliable in vitro measure of estrogenic activity. Assessment of AlkP expression in Ishikawa cells was carried as already described. Briefly, the cells were plated in 96-well plates at a density of 12,000 cells per well in phenol-red-free MEM supplemented with 1 μg/mL insulin and 5% DCC-FBS. […] Data on the dependence of AlkP activity on isoflavonoid concentration were curve fitted using SigmaPlot10 (SPSS Inc) and the numerical data of curve fitting were used to determine AUC as described above, using for the calculation of AUC of a particular AlkP response the very same concentration used for the respective luciferase response. The AUC of AlkP responses of the isoflavonoids of a group were expressed as % of the AUC of the luciferase response of the respective archetypal isoflavone.

ERα [2] = biological target: T2, ERα (Homo sapiens, UniProt P03372); experiment: ERE-dependent luciferase gene transcription in MCF-7:D5L cells; format: cell-based; parameters: MCF-7:D5L cells, a clone of MCF-7 cells stably transfected with an Estrogen Response Element (ERE)-endowed reporter plasmid; endogenous in cells; host or cells: MCF-7:D5L (MCF-7 clone carrying pERE-Gl-Luciferase); settings: for Induction of ERE-dependent Luciferase Transcription (MCF-7:D5L cells) AUC (%): % of AUC of luciferase response of archetypal 3, 4, 5 or 8 up to 0.3, 10, 1.0 and 3.0 μM; for Induction of ERE-dependent Luciferase Transcription (MCF-7:D5L cells) EC25E2: concentration required to achieve 25% of the effect of 0.1 nM E2; for EC50: concentration required to achieve 50% of the effect of 0.1 nM E2, read-out: Induction of ERE-dependent Luciferase Transcription (MCF-7:D5L cells) EC50E2
T2 sequence (P03372 1-595): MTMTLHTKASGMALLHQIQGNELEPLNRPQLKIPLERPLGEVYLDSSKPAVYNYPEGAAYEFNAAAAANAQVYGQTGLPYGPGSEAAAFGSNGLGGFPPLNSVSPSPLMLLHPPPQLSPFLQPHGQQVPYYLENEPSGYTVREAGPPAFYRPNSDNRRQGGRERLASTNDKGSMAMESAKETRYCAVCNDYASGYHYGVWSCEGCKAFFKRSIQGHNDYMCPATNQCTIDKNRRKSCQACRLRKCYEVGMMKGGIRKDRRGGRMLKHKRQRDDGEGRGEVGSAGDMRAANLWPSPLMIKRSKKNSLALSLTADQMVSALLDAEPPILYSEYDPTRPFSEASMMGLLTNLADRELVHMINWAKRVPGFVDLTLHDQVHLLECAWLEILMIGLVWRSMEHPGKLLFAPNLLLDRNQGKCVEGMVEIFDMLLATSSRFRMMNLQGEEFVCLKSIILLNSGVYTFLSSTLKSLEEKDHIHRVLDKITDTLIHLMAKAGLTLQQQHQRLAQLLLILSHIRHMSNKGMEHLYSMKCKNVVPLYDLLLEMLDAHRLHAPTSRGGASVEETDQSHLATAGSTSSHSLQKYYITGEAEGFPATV
Experimental: as §1

ERβ [3] = biological target: T1, ERβ; experiment: ER binding competitor assay (fluorescent estrogen ES2), ERβ; parameters: purchased Invitrogen; settings: for RBAβ / RBAα: ERβ-binding selectivity; for RBAβ: RBA = (IC50 estradiol/IC50 compound) × 100, ES2 1 nM, estradiol set equal to 100
ERα [4] = biological target: T2, ERα; experiment: ER binding competitor assay (fluorescent estrogen ES2), ERα; parameters: purchased Invitrogen; settings: RBA = (IC50 estradiol/IC50 compound) × 100; ES2 1 nM; estradiol set equal to 100
MCF-7 cells = experiment: MCF-7 cell proliferation (MTT); format: cell-based, human; settings: for Induction of cell proliferation (MCF-7 cells) Agonism at 1μΜ, class: compounds 1 μM, 72 h
Experimental: Test compound effects on the proliferation of MCF-7 and MDA-MB-231 cells were assessed as previously described.

[5] = isoflavonoids 1 μM, statistically significant effects

T1 sequence (Q92731 whole entry): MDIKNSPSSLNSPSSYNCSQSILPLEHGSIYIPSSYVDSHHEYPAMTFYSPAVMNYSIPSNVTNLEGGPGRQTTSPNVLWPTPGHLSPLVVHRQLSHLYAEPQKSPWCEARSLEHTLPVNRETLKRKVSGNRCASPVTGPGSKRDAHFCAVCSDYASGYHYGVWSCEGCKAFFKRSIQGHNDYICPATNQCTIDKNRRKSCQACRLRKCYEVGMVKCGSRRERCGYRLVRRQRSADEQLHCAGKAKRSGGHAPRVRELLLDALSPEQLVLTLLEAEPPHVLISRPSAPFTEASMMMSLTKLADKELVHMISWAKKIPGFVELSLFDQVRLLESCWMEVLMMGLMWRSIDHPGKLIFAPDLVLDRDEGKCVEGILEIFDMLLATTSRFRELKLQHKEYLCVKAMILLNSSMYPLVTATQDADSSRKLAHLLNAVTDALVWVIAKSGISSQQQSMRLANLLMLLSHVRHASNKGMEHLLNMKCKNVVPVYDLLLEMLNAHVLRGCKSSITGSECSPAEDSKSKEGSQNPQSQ

activation at 1 µM (ERβ [1]) | EC50 (Ishikawa cells; Homo sapiens, Ishikawa) | Induction of ERE-dependent Luciferase Transcription (MCF-7:D5L cells) AUC (%) (ERα [2]) | Induction of ERE-dependent Luciferase Transcription (MCF-7:D5L cells) EC25E2 (ERα [2]) | EC50 (ERα [2]) | RBAβ / RBAα (ERβ [3]) | RBAα (ERα [4]) | Induction of luciferase gene transcription, MCF-7:D5L cells, Agonism at 1μΜ, class (ERα [2]; compounds 1 μM, 18 h) | RBAβ (ERβ [3]) | Induction of luciferase gene transcription, HEK:ERβ cells, Agonism at 1μΜ, class (ERβ [1]) | SMILES | AlkP response lower than ERα-transcriptional response (relative AUC ratios) (Ishikawa cells) | Induction of Alkaline Phosphatase Expression (Ishikawa cells) AUC (%) (Ishikawa cells) | Ratio of AUC (AlkP / Lucif) (Ishikawa cells) | EC (25% of 0.1 nM E2 effect) (Ishikawa cells; Homo sapiens, Ishikawa, 72 h) | Induction of AlkP expression (Ishikawa cells) Agonism at 1μΜ, class (Ishikawa cells; 72 h) | Induction of cell proliferation (MCF-7 cells) Agonism at 1μΜ, class (MCF-7 cells) | other results
81 ± 5% | 2.61 ± 0.29 µM | 289±14 % | 0.98 ± 0.07 µM | 1.57 ± 0.24 µM | 4.50 | 0.14 ± 0.04 | – | – | – | COc1cc(-c2coc3cc(O)cc(OC)c3c2=O)ccc1O [Compound 6, 3΄-methoxyisoprunetin] | ~ 30% | 182±8 % | 0.63±0.01 | 1.6 ± 0.05 µM | Marginal (⩽10%) | – | Induction of luciferase gene transcription through ERα, MCF-7:D5L cells, Agonism at 1μΜ (% of 0.1nM E2) (ERα [2]; compounds 1 μM, estradiol 0.1 nM, 18 h): 22 ± 5 (Weak) ^* % of 0.1nM E2; ERα-dependent gene transcription agonist effect compared to the effect of 0.1 nM estradiol (ERα [2]; [5]): lower than; activation at 1 µM (MCF-7 cells; Homo sapiens, MCF7, 72 h, read-out: Induction of cell proliferation (MCF-7 cells) Agonism at 1μΜ (% of 0.1nM E2)): 32 ± 3%; MCF-7 cell proliferation agonist effect compared to the effect of 0.1 nM estradiol (MCF-7 cells; [5]): lower than
13 ± 4% | 11.8 ± 2.5 µM | 103±9% | 5.35 ± 0.61 µM | 9.5 ± 1.57 µM | 1.15 | 0.13 ± 0.04 | Marginal (⩽10%) | 0.15 ± 0.04 | – | COc1cc(O)cc2occ(-c3ccc(O)c(O)c3)c(=O)c12 [Compound 7, 5-O-methylorobol] | ~ 30% | 76±15% | 0.74±0.13 | 7.08 ± 0.45 µM | Marginal (⩽10%) | Marginal (⩽10%) | ERβ-dependent gene transcription agonist effect compared to the effect of 0.1 nM estradiol (ERβ [1]; [5]): lower than
– | > 30 µM | 1.6±0.3 % | >30 µM | > 30 µM | 0.45 | 0.11 ± 0.03 | Marginal (⩽10%) | 0.05 ± 0.01 | Marginal (⩽10%) | O=c1c(-c2ccc(O)c(O)c2)coc2c(C3OC(CO)C(O)C(O)C3O)c(O)cc(O)c12 (centres unmarked) [Compound 9, 8-C-glucopyranosyl-orobol] | ~ 30% | 1.1±0.1 % | 0.69±0.07 | > 30 µM | Marginal (⩽10%) | Marginal (⩽10%) | –
– | 2.34 ± 0.65 µM | 77±17% | 2.20 ± 0.18 µM | 3.42 ± 0.91 µM | 1.00 | 0.12 ± 0.05 | Marginal (⩽10%) | 0.12 ± 0.04 | Marginal (⩽10%) | COc1cc(-c2coc3c(C4OC(CO)C(O)C(O)C4O)c(O)cc(O)c3c2=O)ccc1O (centres unmarked) [Compound 13, 8-C-glucopyranosyl-3΄-O-methylorobol] | ~ 30% | 61±11% | 0.79±0.13 | 1.01 ± 0.27 µM | – | Marginal (⩽10%) | activation at 1 µM (Ishikawa cells; Homo sapiens, Ishikawa, 72 h, read-out: Induction of AlkP expression (Ishikawa cells) Agonism at 1μΜ (% of 0.1nM E2)): 15 ± 4%
